# Test results as given in ChEMBL document CHEMBL5215006, “Antitumor Activity of Piceamycin by Upregulation of N-Myc Downstream-Regulated Gene 1 in Human Colorectal Cancer Cells” (J Nat Prod, 2022).
# pIC50: −log10 of the molar value. Activity calls are given as the source filed them. The calls are words filed in the database; no cut-off is given here.
# Columns and labels:
# HCT-116 [1] = assay: Anti-migratory activity against human HCT-116 cells assessed as downregulation of Snail gene expression at 0.075 to 0.3 uM incubated for 24 hrs by RT-PCR assay; format: functional, cell-based; conditions: dose 0.075-0.3 µM
# SW480 [2] = assay: Induction of apoptosis in human SW480 cells assessed as upregulation of cleaved caspase-8 expression at 1.4 uM measured at 12 to 48 hrs by immunoblotting assay; format: functional, cell-based; conditions: time 12-48 hrs, TDE = time-dependent effect
# [3] = Toxicity in Balb/c mouse xenografted with human HCT-116 cells assessed as body weight change at 1 mg/kg,ip administrated for 18 days by 3 times per week; format: organism-based; conditions: in vivo, 432 h, time 18 day
# SW480 [4] = assay: Antiproliferative activity against human SW480 cells assessed as cell growth inhibition incubated for 72 hrs by SRB assay; format: functional, cell-based; conditions: SW480, 72 h
# SW480 [5] = assay: Cell cycle arrest in human SW480 cells assessed as accumulation at G0/G1 phase at 1.4 uM incubated upto 48 hrs by RNaseA/propidium iodide staining based flow cytometry; format: functional
# HCT-116 [6] = assay: Induction of apoptosis in human HCT-116 cells assessed as upregulation of cleaved caspase-8 expression at 0.3 uM measured at 12 to 48 hrs by immunoblotting assay; format: functional, cell-based; conditions: time 12-48 hrs, TDE = time-dependent effect
# HCT-116 [7] = assay: Induction of apoptosis in human HCT-116 cells assessed as viable cells at 0.075 uM incubated for 48 hrs by Annexin V-FITC/PI staining based flow cytometry analysis (Rvb= 94.18%); format: functional; conditions: read-out: Activity
# HCT-116 [8] = assay: Inhibition of colony formation in human HCT-116 cells at 0.075 to 0.3 uM incubated for 72 hrs by crystal violet staining based assay; format: functional, cell-based; conditions: dose 0.075-0.3 µM, DDE = dose-dependent effect
# SW480 [9] = assay: Induction of apoptosis in human SW480 cells assessed as late apoptotic cells at 0.7 uM incubated for 48 hrs by Annexin V-FITC/PI staining based flow cytometry analysis (Rvb= 5.26%); format: functional
# HCT-116 [10] = assay: Upregulation of c-Myc protein expression in human HCT-116 cells with NDRG1 knockdown at 0.3 uM incubated for 24 hrs by immunoblotting assay; format: functional, cell-based
# SW480 [11] = assay: Induction of apoptosis in human SW480 cells assessed as viable cells at 0.7 uM incubated for 48 hrs by Annexin V-FITC/PI staining based flow cytometry analysis (Rvb= 92.6%); format: functional; conditions: read-out: Activity
# HCT-116 [12] = assay: Anti-migratory activity against human HCT-116 cells assessed as downregulation of N-cadherin protein expression at 0.075 to 0.3 uM incubated for 24 hrs by immunoblotting assay; format: functional, cell-based; conditions: dose 0.075-0.3 µM
# SW480 [13] = assay: Induction of apoptosis in human SW480 cells assessed as necrotic cells at 0.35 uM incubated for 48 hrs by Annexin V-FITC/PI staining based flow cytometry analysis (Rvb= 0.07%); format: functional
# SW480 [14] = assay: Induction of apoptosis in human SW480 cells assessed as late apoptotic cells at 1.4 uM incubated for 48 hrs by Annexin V-FITC/PI staining based flow cytometry analysis (Rvb= 5.26%); format: functional
# HCT-116 [15] = assay: Downregulation of cleaved caspase 8 protein expression in human HCT-116 cells with NDRG1 knockdown at 0.3 uM incubated for 24 hrs by immunoblotting assay; format: functional, cell-based
# SW480 [16] = assay: Cell cycle arrest in human SW480 cells assessed as downregulation of cyclin-D1 protein expression at 0.35 to 1.4 uM incubated for 24 hrs by immunoblotting assay; format: functional, cell-based; conditions: dose 0.35-1.4 µM
# HCT-116 [17] = assay: Cell cycle arrest in human HCT-116 cells assessed as accumulation at G0/G1 phase at 0.15 uM incubated for 24 hrs by RNaseA/propidium iodide staining based flow cytometry (reference value: 48.44 %); format: functional
# SW480 [18] = assay: Cell cycle arrest in human SW480 cells assessed as accumulation at Sub-G1 phase at 0.7 uM incubated for 24 hrs by RNaseA/propidium iodide staining based flow cytometry (reference value: 3.2 %); format: functional
# SW480 [19] = assay: Antitumor activity against human SW480 cells assessed as decrease in c-Myc expression at 0.35 to 1.4 uM incubated for 24 hrs by immunoblotting assay; format: functional, cell-based; conditions: dose 0.35-1.4 µM
# HCT-116 [20] = assay: Cell cycle arrest in human HCT-116 cells assessed as accumulation at S phase at 0.3 uM incubated for 24 hrs by RNaseA/propidium iodide staining based flow cytometry (reference value: 19.94 %); format: functional
# SW480 [21] = assay: Induction of apoptosis in human SW480 cells assessed as early apoptotic cells at 0.35 uM incubated for 48 hrs by Annexin V-FITC/PI staining based flow cytometry analysis (Rvb= 2.07%); format: functional
# HCT-116 [22] = assay: Induction of apoptosis in human HCT-116 cells assessed as late apoptotic cells at 0.15 uM incubated for 48 hrs by Annexin V-FITC/PI staining based flow cytometry analysis (Rvb= 3.18%); format: functional
# HCT-116 [23] = assay: Induction of apoptosis in human HCT-116 cells assessed as early apoptotic cells at 0.15 uM incubated for 48 hrs by Annexin V-FITC/PI staining based flow cytometry analysis (Rvb= 2.51%); format: functional
# SW480 [24] = assay: Anti-migratory activity against human SW480 cells assessed as downregulation of Snail gene expression at 0.35 to 1.4 uM incubated for 24 hrs by RT-PCR assay; format: functional, cell-based; conditions: dose 0.35-1.4 µM
# HCT-116 [25] = assay: Cell cycle arrest in human HCT-116 cells assessed as accumulation at Sub-G1 phase at 0.075 uM incubated for 24 hrs by RNaseA/propidium iodide staining based flow cytometry (reference value: 3.66 %); format: functional
# HCT-116 [26] = assay: Cell cycle arrest in human HCT-116 cells assessed as downregulation of CDK6 protein expression at 0.075 to 0.3 uM incubated for 24 hrs by immunoblotting assay; format: functional, cell-based; conditions: dose 0.075-0.3 µM
# HCT-116 [27] = assay: Induction of apoptosis in human HCT-116 cells assessed as upregulation of cleaved PARP expression at 0.3 uM measured at 12 to 48 hrs by immunoblotting assay; format: functional, cell-based; conditions: time 12-48 hrs, TDE = time-dependent effect
# HCT-116 [28] = assay: Cell cycle arrest in human HCT-116 cells assessed as downregulation of cyclin-D1 protein expression at 0.075 to 0.3 uM incubated for 24 hrs by immunoblotting assay; format: functional, cell-based; conditions: dose 0.075-0.3 µM
# HCT-116 [29] = assay: Anti-migratory activity against human HCT-116 cells assessed as upregulation of E-cadherin protein expression at 0.075 to 0.3 uM incubated for 24 hrs by immunoblotting assay; format: functional, cell-based; conditions: dose 0.075-0.3 µM
# HCT-116 [30] = assay: Induction of apoptosis in human HCT-116 cells assessed as late apoptotic cells at 0.075 uM incubated for 48 hrs by Annexin V-FITC/PI staining based flow cytometry analysis (Rvb= 3.18%); format: functional
# HCT-116 [31] = assay: Cell cycle arrest in human HCT-116 cells assessed as accumulation at Sub-G1 phase at 0.3 uM incubated for 24 hrs by RNaseA/propidium iodide staining based flow cytometry (reference value: 3.66 %); format: functional
# HCT-116 [32] = assay: Cell cycle arrest in human HCT-116 cells assessed as accumulation at S phase at 0.075 uM incubated for 24 hrs by RNaseA/propidium iodide staining based flow cytometry (reference value: 19.94 %); format: functional
# HCT-116 [33] = assay: Antitumor activity against human HCT-116 cells xenografted Balb/c mouse assessed as reduction in tumor growth at 1 mg/kg,ip administrated for 18 days by 3 times per week; format: functional; parameters: scale not given: the % may be the effect or the level left; conditions: time 18 day
# HCT-116 [34] = assay: Antimigratory activity against highly liver metastatic human HCT-116 cells assessed as upregulation of E-cadherin protein expression at 0.075 to 0.3 uM incubated for 24 hrs by immunoblotting assay; format: functional, cell-based; conditions: dose 0.075-0.3 µM
structure (smiles),measurement,setting,value
C[C@@H]1\C=C/C=C/C=C\C=C\C=C\C(=O)C2=C(O)C(=O)C[C@@]2(C)/C=C/C=C\C=C/C(=O)NC1,Activity,HCT-116 [1],Active
same,Activity,SW480 [2],Tde
same,Activity,[3],Non-Toxic
same,pIC50,SW480 [4],6.19
same,Activity,SW480 [5],Active
same,Activity,HCT-116 [6],Tde
same,viability at 0.075 µM,HCT-116 [7],84.8%
same,inhibition,HCT-116 [8],Dde
same,Activity,SW480 [9],17.78%
same,Activity,HCT-116 [10],Active
same,viability at 0.7 µM,SW480 [11],69.8%
same,Activity,HCT-116 [12],Active
same,Activity,SW480 [13],0.06%
same,Activity,SW480 [14],44.51%
same,Activity,HCT-116 [15],Active
same,Activity,SW480 [16],Active
same,Activity,HCT-116 [17],55.55%
same,Activity,SW480 [18],4.68%
same,Activity,SW480 [19],Active
same,Activity,HCT-116 [20],10.04%
same,Activity,SW480 [21],2.62%
same,Activity,HCT-116 [22],9.22%
same,Activity,HCT-116 [23],15.66%
same,Activity,SW480 [24],Active
same,Activity,HCT-116 [25],4.46%
same,Activity,HCT-116 [26],Active
same,Activity,HCT-116 [27],Tde
same,Activity,HCT-116 [28],Active
same,Activity,HCT-116 [29],Active
same,Activity,HCT-116 [30],6.71%
same,Activity,HCT-116 [31],5.19%
same,Activity,HCT-116 [32],18.4%
same,Activity,HCT-116 [33],67%
same,Activity,HCT-116 [34],Active
